Assay results from patent US20110130374A1, “Small Pyrimidine Derivatives and Methods of Use Thereof” (BIOSEARCH(2007) LTD., priority 2009, published 2011).

Tests used:
4T1 (breast-mouse) cells = assay: Transwell cell migration assay, 4T1; format: cell-based
Text: (§1) A375 (melanoma) (CRL-1619, ATCC, Manassas, Va., USA), A431 (melanoma) (CRL-2592, ATCC, Manassas, Va., USA), A2058 (melanoma) (CRL-11147, ATCC, Manassas, Va., USA), MDA-MB-231 (breast) (HTB-26, ATCC, Manassas, Va., USA), LS175T (colon) (ATCC, Manassas, Va., USA), HT29 (colon) (HTB-38, ATCC, Manassas, Va., USA), PC3 (prostate) (CRL-1435, ATCC, Manassas, Va., USA), Panc03.27 (pancreatic) (ATCC, Manassas, Va., USA), 4T1 (breast-mouse) (CRL-2539, ATCC, Manassas. Va., USA), D122 (lung-mouse) (the Weizmann Institute of Science), D122-luc (lung-mouse) (the Weizmann Institute of Science), and B16 F10.9 (melanoma-mouse) cells (Caliper Life Sciences, Hopkinton Mass.), were grown in RPMI medium supplemented with 10% FBS. HUVEC cells were grown in Endothelial Cell Growth Medium 2 and THP1 cells were grown in RPMI medium supplemented with 10% FBS, 2 mM L-Glutamine, 1.5 g/L sodium bicarbonate, 10 mM Hepes, 1 mM sodium pyruvate, 4.5 g/L glucose and 0.05 mM 2-mercaptoethanol. The cells were starved for 24 hours in medium without FBS. […] Cells that migrated to the lower side of the membrane were stained with Calcein-AM (Sigma) and images were taken with a fluorescence microscope. The number of migrating cells was quantified by ImageJ software and the IC50 values were calculated using Prism software (Graphpad).

HUVEC cells [1] = assay: Transwell cell migration assay, HUVEC; format: cell-based; settings: Homo sapiens, Endothelial
Text: as §1

[2] = tested on: D122-luc (lung-mouse) cells; assay: Transwell cell migration assay, D122-luc; format: cell-based
Text: as §1

D122 (lung-mouse) cells = assay: Transwell cell migration assay, D122; format: cell-based
Text: as §1

[3] = tested on: MDA-MB231 breast cancer cells; assay: Soft agar colony formation, MDA-MB231 breast cancer cells; format: cell-based; settings: 14 days, MTT
Procedure: The assay was done using CYTOSELECT™ 96-Well In Vitro Tumor Sensitivity Assay kit from Cell Biolabs, Inc. (San-Diego, Calif.). The cells were grown for 14 days with RPMI and 10% FBS medium in the presence of the indicated concentration of Compound 1 (PRT7000467). The quantification of the colony formation on soft agar was done using MTT reagent after solubilization of the agar (all the materials are supplied in the kit). The IC50 value was calculated using Prism software.

A431 (melanoma) cells = assay: Transwell cell migration assay, A431; format: cell-based; settings: Homo sapiens, A-431
Text: as §1

LS175T (colon) cells = assay: Transwell cell migration assay, LS175T; format: cell-based
Text: as §1

A2058 (melanoma) cells = assay: Transwell cell migration assay, A2058; format: cell-based; settings: Homo sapiens
Text: as §1

THP1 monocytes = assay: Transwell cell migration assay, THP1; format: cell-based; settings: Homo sapiens, THP-1; THP1, Monocyte
Text: as §1

[4] = tested on: B16 F10.9 (melanoma-mouse) cells; assay: Transwell cell migration assay, B16 F10.9; format: cell-based
Text: as §1

HUVEC cells [5] = assay: HUVEC tube-formation assay; format: cell-based, human; settings: 25 μM, 6 h, BME with 50 ng/ml VEGF (FIG. 3)
Procedure: Human umbilical vein endothelial cells (HUVEC) were grown routinely in Endothelial Cell Growth Medium 2 with SupplementMix (PromoCell, Germany) containing 15% fetal bovine serum. For Tube-formation assay, 1×10^4 cells, in the above medium containing 5% fetal bovine serum, were seeded on top of Cultrex reduced growth factor Basement Membrane Extract (BME) (R&D Systems, Minneapolis, Minn.) supplemented with 50 ng/ml VEGF (Prospec, Israel). The cells were treated with either solvent (50% DMSO/50% PEG400), 25 μM compound 1 (PRT7000467), 10 μM LY294004 (Cayman Chemical, Ann Arbor, Mich.) or 3 μM FTY720 (Cayman Chemical, Ann Arbor, Mich.) as indicated. LY294004 is a PI3K inhibitor and FTY720 is a modulator of sphingosine-1-phosphate receptors, both of them served as positive controls. Six hours later the cells were stained with Calcein-AM (Sigma, Israel) and images were taken with a fluorescence microscope.

[6] = tested on: Panc03.27 (pancreatic) cells; assay: Transwell cell migration assay, Panc03.27; format: cell-based; settings: Homo sapiens, PANC-03-27; Panc 03.27, Pancreatic
Text: as §1

[7] = tested on: MDA-MB-468 breast cancer cells; assay: Transwell cell migration assay, MDA-MB-468 breast cancer cells; format: cell-based; settings: MDA-MB-468, 12.5 μM, 24 h, 8 μm pore (FIG. 2)
Procedure: (§2) MDA-MB-231 (HTB-26, ATCC, Manassas, Va., USA) and MDA-MB-468 (HTB-132, ATCC, Manassas, Va., USA) breast cancer cell lines and DU 145 (HTB-81, ATCC, Manassas, Va., USA) prostate cancer cell line grown in RPMI medium supplement with 10% FBS were starved for 24 hours in medium without FBS. After 24 hours, 5×10^4 cells in FBS free medium were placed in the upper chamber of 24-well Transwell apparatus (CORNING TRANSWELL® polycarbonate membrane inserts, 8 μm pore size) with solvent (DMSO/PEG400) or 12.5 μM Compound 1 as indicated. Medium with FBS and Compound 1 was added to the bottom chamber. Twenty-four hours later the cells from the upper chamber were removed with a cotton swab. Cells that migrated to the lower side of the membrane were stained with Calcein-AM (Sigma) and images were taken with a fluorescence microscope.

[8] = tested on: MDA-MB-231 breast cancer cells; assay: Transwell cell migration assay, MDA-MB-231 breast cancer cells; format: cell-based
Procedure: as §2, with “microscope. […]” for “microscope.”

PC3 (prostate) cells = assay: Transwell cell migration assay, PC3; format: cell-based
Text: as §1

HT29 (colon) cells = assay: Transwell cell migration assay, HT29; format: cell-based; settings: Homo sapiens, HT-29
Text: as §1

**Q.** For Cc1cc(C)nc(NS(=O)(=O)c2ccc(NC(=O)/C(=C\c3cccs3)NC(=O)c3cccs3)cc2)n1 [Compound 1], which IC50 (4T1 (breast-mouse) cells) is on record?
**A.** 0.8 µM

**Q.** What about the IC50 (HUVEC cells [1]) of the same compound?
**A.** 2.9 µM

**Q.** And the IC50 [2]?
**A.** 1.6 µM

**Q.** What about the IC50 (D122 (lung-mouse) cells) of the same compound?
**A.** 1.4 µM

**Q.** What about the “soft agar colony formation” value ([3]; MDA-MB231 breast cancer cells) of the same compound?
**A.** inhibits soft agar colony formation

**Q.** What about the “LD50 in the soft agar colony formation assay” value ([3]; MDA-MB231 cells) of the same compound?
**A.** 13.08 µM

**Q.** And the IC50 (A431 (melanoma) cells)?
**A.** 1.1 µM

**Q.** What about the IC50 (LS175T (colon) cells) of the same compound?
**A.** 1 µM

**Q.** And the IC50 (A2058 (melanoma) cells)?
**A.** 3.5 µM

**Q.** And the IC50 (THP1 monocytes)?
**A.** > 30 µM

**Q.** And the IC50 [4]?
**A.** 0.2 µM

**Q.** And the “formation of tube-like structure by HUVEC cells” value (HUVEC cells [5])?
**A.** inhibits the formation of tube-like structure

**Q.** And the IC50 [6]?
**A.** 1 µM

**Q.** And the “cell migration (Transwell, images)” value [7]?
**A.** inhibits the migration

**Q.** What about the IC50 ([8]; Homo sapiens, MDA-MB-231, MDA-MB231, Breast) of the same compound?
**A.** 0.5 µM

**Q.** What about the “cell migration (Transwell, images)” value ([8]; MDA-MB-231, 12.5 μM, 24 h, 8 μm pore (FIG. 2)) of the same compound?
**A.** inhibits the migration

**Q.** And the IC50 (PC3 (prostate) cells)?
**A.** 6.3 µM

**Q.** What about the IC50 (HT29 (colon) cells) of the same compound?
**A.** 1.5 µM
